Patent US20150201650A1, “DIETARY SUPPLEMENT” (Vetafarm Europe Ltd, priority 2009, published 2015)
Several values for one entry are separate records, joined by “and”; a condition that tells them apart may be missing. Identical values can stand only once. Entries after “also recorded” stand apart in the source; their conditions may differ.

System: horses demonstrating agitated behaviour
Assay: Feeding trial of calcium supplements in horses demonstrating agitated behaviour, marked by the feeder
Assay type: in vivo, horse
Conditions: for average mark for horses: mean of the feeders' marks (1 bad, 5 good); for feeder's general comment on the horse's behaviour during the trial / mark provided by the feeder, based on the effect noted in the behaviour of the horse: single horse; for mark provided by the feeder, based on the effect noted in the behaviour of the horse: mark between 1 and 5 (bad is 1, good is 5)
From the text: The horses were given doses of calcium chelate calculated to provide a loading dose of 12 grams of calcium per day for five days each week for a period of a month. In the calcium carbonate subject the feed dose was 24 or 48 grams of calcium per day. The feeder provided a mark between 1 and 5 where bad is 1 and good is 5. The mark allocated was based on the effect noted in the behaviour of the horse. The feeder also provided general comments on the horses' behaviour during the trial.

[1] = 60 grams of calcium carbonate only
[2] = 120 grams of calcium carbonate only
[3] = 12 grams of calcium per day, five days each week for a month
[4] = loading dose of 12 grams of calcium per day, five days each week for a month, supplement of the calcium chelate only

O=C([O-])[O-].[Ca+2] [calcium carbonate, reference compound]
average mark for horses (feed dose 24 or 48 grams of calcium per day as calcium carbonate): 1.67
feeder's general comment on the horse's behaviour during the trial [1]: not much difference in the behaviour; also recorded: No significant change
feeder's general comment on the horse's behaviour during the trial [2]: small improvement in the horse's behaviour but not sufficient for the horse to be ridden
mark provided by the feeder, based on the effect noted in the behaviour of the horse [1]: 1.5 and 1
mark provided by the feeder, based on the effect noted in the behaviour of the horse [2]: 2.5

O=C([O-])CC(O)(CC(=O)[O-])C(=O)[O-].O=C([O-])CC(O)(CC(=O)[O-])C(=O)[O-].[Ca+2].[Ca+2].[Ca+2] [calcium citrate]
average mark for horses [3]: 4.6
feeder's general comment on the horse's behaviour during the trial [3]: a lot calmer and rational; also recorded: much calmer and friendlier; also recorded: very good response; also recorded: much calmer generally
mark provided by the feeder, based on the effect noted in the behaviour of the horse [4]: 4.5 and 4 and 5

calcium gluconate
average mark for horses [3]: 3.33
feeder's general comment on the horse's behaviour during the trial [3]: calmed down without losing any energy; also recorded: did not notice a difference in the horses' behaviour for the first couple of weeks; also recorded: within two weeks the horse was completely calm
mark provided by the feeder, based on the effect noted in the behaviour of the horse [4]: 4.5 and 2.5 and 3
